Consider 8 compounds from patent US10206394B2, “Herbicidal compounds” (Syngenta Participations AG, priority 2014, dated 2019).

Structures are written as SMILES. Like-named read-outs stand apart in the source and are kept apart here.

Holding throughout (assay): Glasshouse assay for herbicidal activity (pre- and post-emergence), percentage phytotoxicity
Holding throughout (format): in vivo

Experiment [1] concerns Alopecurus myosuroides (ALOMY). The note with it: Alopecurus myosuroides. The procedure, abridged:
(§1)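 Visually rated damage, 0–100%. PRE spray 1 d after sowing, scored 20 DAA; POST spray ~12 d, scored 15 DAA. Glasshouse at 65% humidity, 16 h day.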

A further experiment has as its system Avena fatua (AVEFA). The note with it: Avena fatua. A digest of the protocol: as §1
Experiment [2] has as its system Echinochloa crus-galli (ECHCG). As to conditions: Echinochloa crus-galli. A digest of the protocol:
as §1

The subject of a further experiment is Lolium perenne (LOLPE). As to conditions: Lolium perenne. A digest of the protocol: as §1
Setting [3] is: post-emergence, 360 h, POST-emergence, rate 250 g/ha, visual score 15 DAA (100%=total damage, 0%=no damage), read-out: Post-emergence herbicidal activity (percentage phytotoxicity) ALOMY POST.
The mark [4] stands for this setting: pre-emergence, 480 h, PRE-emergence, rate 250 g/ha, visual score 20 DAA (100%=total damage, 0%=no damage), read-out: Pre-emergence herbicidal activity (percentage phytotoxicity) ALOMY PRE.
[5] abbreviates: post-emergence, 360 h, POST-emergence, rate 250 g/ha, visual score 15 DAA (100%=total damage, 0%=no damage), read-out: Post-emergence herbicidal activity (percentage phytotoxicity) AVEFA POST.
The mark [6] stands for this setting: pre-emergence, 480 h, PRE-emergence, rate 250 g/ha, visual score 20 DAA (100%=total damage, 0%=no damage), read-out: Pre-emergence herbicidal activity (percentage phytotoxicity) AVEFA PRE.
[7] abbreviates: post-emergence, 360 h, POST-emergence, rate 250 g/ha, visual score 15 DAA (100%=total damage, 0%=no damage), read-out: Post-emergence herbicidal activity (percentage phytotoxicity) ECHCG POST.
The mark [8] stands for this setting: pre-emergence, 480 h, PRE-emergence, rate 250 g/ha, visual score 20 DAA (100%=total damage, 0%=no damage), read-out: Pre-emergence herbicidal activity (percentage phytotoxicity) ECHCG PRE.
[9] abbreviates: post-emergence, 360 h, POST-emergence, rate 250 g/ha, visual score 15 DAA (100%=total damage, 0%=no damage), read-out: Post-emergence herbicidal activity (percentage phytotoxicity) LOLPE POST.
Where [10] appears, read: pre-emergence, 480 h, PRE-emergence, rate 250 g/ha, visual score 20 DAA (100%=total damage, 0%=no damage), read-out: Pre-emergence herbicidal activity (percentage phytotoxicity) LOLPE PRE.
The mark [11] stands for this setting: post-emergence, 360 h, post-emergence, 250 g/ha, 15 DAA, visual score (100%=total damage; 0%=no damage), read-out: ALOMY POST herbicidal activity (percentage phytotoxicity).
[12] abbreviates: pre-emergence, 480 h, pre-emergence, 250 g/ha, 20 DAA, visual score (100%=total damage; 0%=no damage), read-out: ALOMY PRE herbicidal activity (percentage phytotoxicity).
[13] abbreviates: post-emergence, 360 h, post-emergence, 250 g/ha, 15 DAA, visual score (100%=total damage; 0%=no damage), read-out: AVEFA POST herbicidal activity (percentage phytotoxicity).
[14] abbreviates: pre-emergence, 480 h, pre-emergence, 250 g/ha, 20 DAA, visual score (100%=total damage; 0%=no damage), read-out: AVEFA PRE herbicidal activity (percentage phytotoxicity).
[15] abbreviates: post-emergence, 360 h, post-emergence, 250 g/ha, 15 DAA, visual score (100%=total damage; 0%=no damage), read-out: ECHCG POST herbicidal activity (percentage phytotoxicity).
The mark [16] stands for this setting: pre-emergence, 480 h, pre-emergence, 250 g/ha, 20 DAA, visual score (100%=total damage; 0%=no damage), read-out: ECHCG PRE herbicidal activity (percentage phytotoxicity).
Setting [17] is: post-emergence, 360 h, post-emergence, 250 g/ha, 15 DAA, visual score (100%=total damage; 0%=no damage), read-out: LOLPE POST herbicidal activity (percentage phytotoxicity).
Setting [18] is: pre-emergence, 480 h, pre-emergence, 250 g/ha, 20 DAA, visual score (100%=total damage; 0%=no damage), read-out: LOLPE PRE herbicidal activity (percentage phytotoxicity).
[19] abbreviates: post-emergence, 360 h, Rate 250 g/ha, post-emergence, visual assessment 15 DAA, 100%=total damage, 0%=no damage, read-out: Post-emergence herbicidal activity (percentage phytotoxicity) ALOMY POST.
Setting [20] is: pre-emergence, 480 h, Rate 250 g/ha, pre-emergence, visual assessment 20 DAA, 100%=total damage, 0%=no damage, read-out: Pre-emergence herbicidal activity (percentage phytotoxicity) ALOMY PRE.
Setting [21] is: post-emergence, 360 h, Rate 250 g/ha, post-emergence, visual assessment 15 DAA, 100%=total damage, 0%=no damage, read-out: Post-emergence herbicidal activity (percentage phytotoxicity) AVEFA POST.
Setting [22] is: pre-emergence, 480 h, Rate 250 g/ha, pre-emergence, visual assessment 20 DAA, 100%=total damage, 0%=no damage, read-out: Pre-emergence herbicidal activity (percentage phytotoxicity) AVEFA PRE.
The mark [23] stands for this setting: post-emergence, 360 h, Rate 250 g/ha, post-emergence, visual assessment 15 DAA, 100%=total damage, 0%=no damage, read-out: Post-emergence herbicidal activity (percentage phytotoxicity) ECHCG POST.
[24] abbreviates: pre-emergence, 480 h, Rate 250 g/ha, pre-emergence, visual assessment 20 DAA, 100%=total damage, 0%=no damage, read-out: Pre-emergence herbicidal activity (percentage phytotoxicity) ECHCG PRE.
Setting [25] is: post-emergence, 360 h, Rate 250 g/ha, post-emergence, visual assessment 15 DAA, 100%=total damage, 0%=no damage, read-out: Post-emergence herbicidal activity (percentage phytotoxicity) LOLPE POST.
The mark [26] stands for this setting: pre-emergence, 480 h, Rate 250 g/ha, pre-emergence, visual assessment 20 DAA, 100%=total damage, 0%=no damage, read-out: Pre-emergence herbicidal activity (percentage phytotoxicity) LOLPE PRE.

Consider `Cc1cc(C)c(C2C(=O)CC(CC(=O)NCC(CF)CF)C2=O)c(C)c1` (stereo not shown) [Compound B76], for which the pest or weed control at 250 g/ha in experiment [1] (post-emergence, 360 h, 250 g/ha, post-emergence, 15 DAA, visual assessment (100%=total damage, 0%=no damage), read-out: Post-emergence herbicidal activity (percentage phytotoxicity) ALOMY POST) stood at 80%; in experiment [1] (pre-emergence, 480 h, 250 g/ha, pre-emergence, 20 DAA, visual assessment (100%=total damage, 0%=no damage), read-out: Pre-emergence herbicidal activity (percentage phytotoxicity) ALOMY PRE) it was 90%; in the experiment with Avena fatua (AVEFA) (post-emergence, 360 h, 250 g/ha, post-emergence, 15 DAA, visual assessment (100%=total damage, 0%=no damage), read-out: Post-emergence herbicidal activity (percentage phytotoxicity) AVEFA POST), 80%; in the experiment on Avena fatua (AVEFA) (pre-emergence, 480 h, 250 g/ha, pre-emergence, 20 DAA, visual assessment (100%=total damage, 0%=no damage), read-out: Pre-emergence herbicidal activity (percentage phytotoxicity) AVEFA PRE), 70%; in experiment [2] (post-emergence, 360 h, 250 g/ha, post-emergence, 15 DAA, visual assessment (100%=total damage, 0%=no damage), read-out: Post-emergence herbicidal activity (percentage phytotoxicity) ECHCG POST), 80%; in experiment [2] (pre-emergence, 480 h, 250 g/ha, pre-emergence, 20 DAA, visual assessment (100%=total damage, 0%=no damage), read-out: Pre-emergence herbicidal activity (percentage phytotoxicity) ECHCG PRE), 90%. In addition, the pest or weed control at 250 g/ha with Lolium perenne (LOLPE) (post-emergence, 360 h, 250 g/ha, post-emergence, 15 DAA, visual assessment (100%=total damage, 0%=no damage), read-out: Post-emergence herbicidal activity (percentage phytotoxicity) LOLPE POST) turned out to be 80%; in the experiment with Lolium perenne (LOLPE) (pre-emergence, 480 h, 250 g/ha, pre-emergence, 20 DAA, visual assessment (100%=total damage, 0%=no damage), read-out: Pre-emergence herbicidal activity (percentage phytotoxicity) LOLPE PRE), 90%.
Consider `CCc1cc(OCC(F)(F)F)cc(C)c1C1C(=O)CC(CC(=O)NCC2CC2)C1=O` (stereo not shown) [Compound B219], for which the pest or weed control at 250 g/ha in experiment [1] (setting [3]) was determined as 100%; in experiment [1] (setting [4]), 100%; with Avena fatua (AVEFA) (setting [5]) it was 100%; in the experiment with Avena fatua (AVEFA) (setting [6]), 90%; in experiment [2] (setting [7]), 100%; in experiment [2] (setting [8]), 90%. In addition, the pest or weed control at 250 g/ha with Lolium perenne (LOLPE) (setting [9]) and in the experiment with Lolium perenne (LOLPE) (setting [10]) was 100% in each case.
Turning to `CCc1cc(OCC(F)(F)F)cc(C)c1C1C(=O)CC(CC(N)=O)C1=O` (stereo not shown) [Compound B167], the pest or weed control at 250 g/ha in experiment [1] (setting [3]) came to 100%; in experiment [1] (setting [4]), 100%; with Avena fatua (AVEFA) (setting [5]), 100%; in the experiment with Avena fatua (AVEFA) (setting [6]), 90%; in experiment [2] (setting [7]), 100%; in experiment [2] (setting [8]) it was 100%. For the same compound, the pest or weed control at 250 g/ha with Lolium perenne (LOLPE) (setting [9]) was found to be 90%; in the experiment on Lolium perenne (LOLPE) (setting [10]), 100%.
In the case of `Cc1cc(C)c(C2C(=O)CC(CC(=O)NC3COC3)C2=O)c(C)c1` (stereo not shown) [Compound A182], the pest or weed control at 250 g/ha in experiment [1] (setting [11]) turned out to be 70%; in experiment [1] (setting [12]), 70%; in the experiment with Avena fatua (AVEFA) (setting [13]) it was 70%; in the experiment with Avena fatua (AVEFA) (setting [14]), 20%; in experiment [2] (setting [15]) it was 80%; in experiment [2] (setting [16]), 0%. In addition, the pest or weed control at 250 g/ha amounted to 40% with Lolium perenne (LOLPE) (setting [17]) and 70% with Lolium perenne (LOLPE) (setting [18]).
In the case of `CCN(C)C(=O)CC1CC(=O)C(c2c(C)cc(-c3ccc(F)cn3)cc2C)C1=O` (stereo not shown) [Compound B392], the pest or weed control at 250 g/ha in experiment [1] (setting [19]) was 90%; in experiment [1] (setting [20]) it was 100%; in the experiment with Avena fatua (AVEFA) (setting [21]), 100%; in the experiment on Avena fatua (AVEFA) (setting [22]), 100%; in experiment [2] (setting [23]), 100%; in experiment [2] (setting [24]) it was 100%. Further, the pest or weed control at 250 g/ha with Lolium perenne (LOLPE) (setting [25]) is 90%; with Lolium perenne (LOLPE) (setting [26]), 100%.
Turning to `COCCOCCCNC(=O)CC1CC(=O)C(c2c(C)cc(C)cc2C)C1=O` (stereo not shown) [Compound A179], the pest or weed control at 250 g/ha amounted to 100% in experiment [1] (setting [11]); 100% in experiment [1] (setting [12]); 100% in the experiment on Avena fatua (AVEFA) (setting [13]); 90% with Avena fatua (AVEFA) (setting [14]); 100% in experiment [2] (setting [15]); 80% in experiment [2] (setting [16]). For the same compound, the values for the pest or weed control at 250 g/ha with Lolium perenne (LOLPE) (setting [17]) and in the experiment with Lolium perenne (LOLPE) (setting [18]) were 80% and 90%, respectively.
On to `Cc1cc(-c2ncc(Cl)cn2)cc(C)c1C1C(=O)CC(CC(=O)NCc2cccs2)C1=O` (stereo not shown) [Compound B353], for which the pest or weed control at 250 g/ha in experiment [1] (setting [19]) was found to be 90%; in experiment [1] (setting [20]) it was 80%; in the experiment on Avena fatua (AVEFA) (setting [21]), 100%; in the experiment with Avena fatua (AVEFA) (setting [22]) it was 90%; in experiment [2] (setting [23]), 100%; in experiment [2] (setting [24]), 100%. The values for the pest or weed control at 250 g/ha in the experiment on Lolium perenne (LOLPE) (setting [25]) and with Lolium perenne (LOLPE) (setting [26]) were 100% and 90%, respectively.
Turning to `CCc1cc(-n2cc(Cl)cn2)cc(C)c1C1C(=O)CC(CC(=O)NCc2cccc(F)c2)C1=O` (stereo not shown) [Compound B232], the pest or weed control at 250 g/ha in experiment [1] (setting [3]) turned out to be 100%; in experiment [1] (setting [4]) it was 90%; in the experiment on Avena fatua (AVEFA) (setting [5]) it was 100%; in the experiment on Avena fatua (AVEFA) (setting [6]), 70%; in experiment [2] (setting [7]), 100%; in experiment [2] (setting [8]), 90%. For the same compound, the pest or weed control at 250 g/ha with Lolium perenne (LOLPE) (setting [9]) stood at 100%; in the experiment with Lolium perenne (LOLPE) (setting [10]), 90%.
